Reference: paper PMC8509398, “Proteolytic Cleavage of Bioactive Peptides and Protease-Activated Receptors in Acute and Post-Colitis” (International Journal of Molecular Sciences, 2021)
Blank lines part the entries; values can stand above or below the molecule they belong to. Residues, ends and D or L forms follow the SMILES beside them. *: point of attachment. AMC = Cc1cc(=O)oc2cc(N*)ccc12; Boc = CC(C)(C)OC(=O)*

Experiments:
[1] = molecular target: T1, trypsin-3 (Homo sapiens, UniProt P35030); assay: Michaelis-Menten constant of fluorogenic substrates with trypsin-3; assay type: biochemical; design: made in house; conditions: trypsin-3 0.015 nM, range of substrate concentrations, 37 °C, fluorescence measured kinetically 20 min, Michaelis-Menten fit, experiment repeated twice
T1 sequence (P35030 1-304): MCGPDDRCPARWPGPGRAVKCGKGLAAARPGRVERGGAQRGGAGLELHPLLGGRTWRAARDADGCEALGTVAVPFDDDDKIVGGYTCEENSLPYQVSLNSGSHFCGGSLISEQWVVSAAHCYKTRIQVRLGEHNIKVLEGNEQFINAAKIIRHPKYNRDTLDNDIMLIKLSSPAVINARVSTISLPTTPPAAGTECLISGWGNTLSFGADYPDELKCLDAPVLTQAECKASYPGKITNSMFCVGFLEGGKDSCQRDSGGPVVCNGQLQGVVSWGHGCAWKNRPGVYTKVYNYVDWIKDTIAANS
Method: (§1) Preheated substrate was added to colonic lysate to start the reaction. Fluorescence was measured for 20 min at 37 °C on a Tecan Infinite F200 pro microtiter plate reader. A calibration curve with AMC (Sigma-Aldrich, Saint Louis, MO, USA) was used to determine activities in units per liter, where a unit is defined as the amount of enzyme that catalyzes the conversion of one micromole of the substrate per minute in the specific experimental conditions described. Activities were normalized to protein concentration determined with Bradford to obtain activities in units per gram protein. Km for trypsin-1, trypsin-2, trypsin-3 and thrombin with Boc-QAR-AMC and Tos-GPR-AMC were also determined (Figure S5).
(§2) Figure S 5: Michaelis-Menten constant (Km) for (a) trypsin-1, (b) trypsin-2, (c) trypsin-3 and (d) thrombin with Boc-QAR-AMC and Tos -GPR-AMC. The Km was determined with Boc -QAR-AMC and Tos -GPR-AMC by adding trypsin-1 (0.015 nM), trypsin -2 (0.015 nM), trypsin -3 (0.015 nM) or thrombin (0.19 nM) to a range of substrate concentrations at 37° C. The fluorescence was measured kinetically for 20 min at 37° C on a Tecan F200 multi-plate reader. The results in RFU/min were recalculated by dividing them by the slope of a calibration curve with AMC (0.78 – 10 µM) to obtain results in µmol/L/min. […]

[2] = molecular target: thrombin (Homo sapiens, UniProt P00734); assay: Michaelis-Menten constant of fluorogenic substrates with thrombin; assay type: biochemical; design: thrombin (Sigma-Aldrich); purchased Sigma-Aldrich; conditions: thrombin 0.19 nM, range of substrate concentrations, 37 °C, fluorescence measured kinetically 20 min, Michaelis-Menten fit, experiment repeated twice
Method: as §1, §2

[3] = molecular target: pancreatic elastase I (Sus scrofa, UniProt P00772); assay: Cleavage of peptides by purified pancreatic elastase, MALDI-TOF/TOF; conditions: 25 nM protease, 10 µM peptide, 37 °C, time points 2, 5, 10, 30 min
Text: Trypsin-like proteases included in the experiments are trypsin-1, -2 and -3, tryptase (Enzo LifeSciences), thrombin (Sigma-Aldrich) and cathepsin G (Sigma-Aldrich). Trypsin-1, -2 and -3 were produced as described by Koistinen et al. and Wu et al.. Two elastase-like enzymes, neutrophil elastase (Enzo LifeSciences, Farmingdale, NY, USA) and pancreatic elastase I (Sigma-Aldrich) were included as well. All enzymes were from human origin except for pancreatic elastase from porcine pancreas.
Reaction mixtures with purified enzymes were compiled in an identical way. […] Substance P was added as the standard peptide except for the reaction mixtures with substance P or bradykinin as the peptide of interest, where angiotensin II (Bachem) was added.
The TFA mixtures were thawed on ice and desalted using C18 zip-tips (Merck Millipore®, Burlington, MA, USA) with a capacity of 5 µg protein. Retained peptide fragments were eluted directly on the MALDI target plate. Next, 0.5 µL of a 2.5 mg/mL α-cyano-4-hydroxycinnamic acid (Sigma-Aldrich) matrix solution (in 70% acetonitrile, 0.1% TFA) was spotted on top of the sample. A 6-Peptide mixture Kit (AB Sciex, Framingham, MA, USA) containing bradykinin (2–9), angiotensin I, glu1-fibrinopeptide, ACTH (1–17), ACTH (18–39) and ACTH (7–38) was diluted with matrix and spotted on the plate as well.
MS and MS/MS data for peptide fragment identification were obtained with a MALDI-TOF/TOF instrument (4800 MALDI TOF/TOF™, Applied Biosystems, Waltham, MA, USA) and instrument parameters were set using 4000 Series Explorer™ software. MS spectra were recorded in positive reflector mode in a mass range from 500 to 4000 Da and laser intensity of 4500–4800 Hz. The spectra were calibrated using the calibration mixture mentioned above to a mass tolerance of 0.1 Da. MS/MS spectra were recorded with high-energy collision-induced dissociation and the laser intensity was increased by 10%.
Identified fragments were confirmed using the MS/MS spectra and mMass 5.5.0 by Martin Strohalm. The relative intensities of the fragments were calculated as the ratio of the intensity of the peak of interest to the intensity of the peak of the standard peptide.

[4] = system: T-cell transfer colitis mouse model; conditions: treated mice; cited from earlier work
[5] = substrate: Cc1cc(=O)oc2cc(NC(=O)[C@H](CCCNC(=N)N)NC(=O)[C@H](C)NC(=O)[C@H](CCC(N)=O)NC(=O)OC(C)(C)C)ccc12; assay: Michaelis-Menten constant of fluorogenic substrates with trypsin-2; assay type: biochemical, human; conditions: other: trypsin-2 0.015 nM, range of substrate concentrations, 37 °C, fluorescence measured kinetically 20 min, Michaelis-Menten fit, experiment repeated twice
Method: as §1, §2

Sequence of pancreatic elastase I (P00772 27-266): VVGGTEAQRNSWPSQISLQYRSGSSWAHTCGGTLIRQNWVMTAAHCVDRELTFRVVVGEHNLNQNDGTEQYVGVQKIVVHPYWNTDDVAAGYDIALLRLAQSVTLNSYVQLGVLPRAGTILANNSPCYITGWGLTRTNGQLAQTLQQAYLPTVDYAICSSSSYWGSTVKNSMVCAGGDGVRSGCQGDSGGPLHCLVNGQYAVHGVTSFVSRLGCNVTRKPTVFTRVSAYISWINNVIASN

- Km [1]: 4.6 ± 0.3 µM
- Km [2]: 2510 ± 285 µM
Molecule: Cc1cc(=O)oc2cc(NC(=O)[C@H](CCCNC(=N)N)NC(=O)[C@H](C)NC(=O)[C@H](CCC(N)=O)NC(=O)OC(C)(C)C)ccc12 [Boc-QAR-AMC] (Boc-Gln-Ala-Arg-{AMC})

Molecule: CSCC[C@H](NC(=O)[C@H](Cc1ccccc1)NC(=O)CNC(=O)CNC(=O)[C@@H](N)Cc1ccc(O)cc1)C(=O)O [M-enkephalin, Met-enkephalin]
- Incubation time at which the first cleavage or decrease of the full-length peptide was observed, pancreatic elastase [3]: 30 min

Molecule: CC(C)C[C@H](NC(=O)[C@H](Cc1ccccc1)NC(=O)CNC(=O)CNC(=O)[C@@H](N)Cc1ccc(O)cc1)C(=O)O [L-enkephalin, Leu-enkephalin]
- Incubation time at which the first cleavage or decrease of the full-length peptide was observed, pancreatic elastase [3]: 30 min

Molecule: CC(=O)Nc1ccc(OP(=O)(Oc2ccc(NC(C)=O)cc2)C(Cc2ccc(N=C(N)N)cc2)NC(=O)OCc2ccccc2)cc1.Cl (stereo not shown) [UAMC-00050]
- Effect on intestinal inflammation and permeability [4]: ameliorated intestinal inflammation and permeability
- Effect on mRNA expression of PAR4 [4]: decreased the mRNA expression of PAR4

B1: trypsin-2 (Homo sapiens) (protein)
chain: IVGGYICEENSVPYQVSLNSGYHFCGGSLISEQWVVSAGHCYKSRIQVRLGEHNIEVLEGNEQFINAAKIIRHPKYNSRTLDNDILLIKLSSPAVINSRVSAISLPTAPPAAGTESLISGWGNTLSSGADYPDELQCLDAPVLSQAECEASYPGKITNNMFCVGFLEGGKDSCQGDSGGPVVSNGELQGIVSWGYGCAQKNRPGVYTKVYNYVDWIKDTIAANS
notes: made in house
- Km [5]: 11.8 ± 0.1 µM
